Results reported in patent US10820591B2, “Substituted sulfonyl amides for controlling animal pests” (Bayer Aktiengesellschaft, priority 2016, dated 2020).
Read-outs that look alike come from different tables or passages of the source. Each block holds one compound with its values, some of them ahead of it.

Legend:
Meloidogyne incognita [1] = experiment: Meloidogyne incognita test, comparative examples (soil drench, lettuce); type: in vivo; conditions: 504 h, MELGIN, 21dat
Protocol: Meloidogyne incognita Test [table] To produce a suitable active compound preparation, 1 part by weight of active compound is mixed with the specified amounts of solvent and emulsifier, and the concentrate is diluted with water to the desired concentration, it being necessary to include the volume of soil which is drenched in the calculation. It should be ensured that a concentration of 20 ppm of emulsifier in the soil is not exceeded. To produce further test concentrations, water is used for dilution. Pots filled with soil (loamy sand) are watered with the active compound solution. An egg/larvae suspension of the southern root-knot nematode (Meloidogyne incognita) is added, lettuce seeds are scattered over the surface of the soil, and they are covered over with quartz sand. The lettuce seeds germinate and the plants develop. The galls develop on the roots. After 21 days, the nematicidal efficacy in % is determined by the formation of galls. 100% means that no galls have been found; 0% means that the number of galls on the treated plants corresponds to the untreated control.

[2] = log P by HPLC on reversed-phase column (C18), EEC Directive 79/831 Annex V.A8; type: physicochemical
Protocol: The log P values were determined according to EEC Directive 79/831 Annex V.A8 by HPLC (high-performance liquid chromatography) on a reversed-phase column (C18). Temperature 43° C. The calibration is effected with unbranched alkan-2-ones (having 3 to 16 carbon atoms), for which the log P values are known. Here, the terms acidic and neutral are defined analogously to the definitions below for the determination of M^+. The determination of the M^+ by LC-MS in the acidic range was carried out at pH 2.7 using the mobile phases 0.1% aqueous formic acid and acetonitrile (contains 0.1% formic acid); linear gradient from 10% acetonitrile to 95% acetonitrile, instrument: Agilent 1100 LC system, Agilent MSD system, HTS PAL. The determination of the M^+ by LC-MS in the neutral range was carried out at pH 7.8 using the mobile phases 0.001 molar aqueous ammonium bicarbonate solution and acetonitrile; linear gradient from 10% acetonitrile to 95% acetonitrile.

Phaedon cochleariae = Phaedon cochleariae spray test; type: in vivo; conditions: 500 g/ha, Chinese cabbage leaf discs, after 7 days
Protocol: Phaedon cochleariae—Spray Test
To produce a suitable active compound preparation, 1 part by weight of active compound is dissolved with the specified parts by weight of solvent and made up to the desired concentration with water containing an emulsifier concentration of 1000 ppm. To produce further test concentrations, the formulation is diluted with emulsifier-containing water.
After 7 days, the efficacy in % is determined. 100% means that all the beetle larvae have been killed; 0% means that no beetle larvae have been killed.

Meloidogyne incognita [3] = experiment: Meloidogyne incognita test (sand, lettuce, gall formation); type: in vivo; conditions: Meloidogyne incognita, 336 h, 20 ppm, after 14 days; read-out: nematicidal efficacy (formation of galls)
How it was run: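 Vessels held sand, diluted compound solution, M. incognita egg/larvae suspension and lettuce seeds, and the plants grew for 14 days. Efficacy in % came from root gall formation: 100% means no galls, 0% means galls equal to the untreated control.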

Nilaparvata lugens = Nilaparvata lugens test; type: in vivo; conditions: 500 g/ha, spray, rice plants, after 4 days
Protocol: Nilaparvata lugens Test [table] To produce a suitable active compound preparation, 1 part by weight of active compound is dissolved with the specified parts by weight of solvent and made up to the desired concentration with water containing an emulsifier concentration of 1000 ppm. To produce further test concentrations, the formulation is diluted with emulsifier-containing water. Rice plants (Oryza sativa) are sprayed with the active compound preparation of the desired concentration and then infected with larvae of the brown planthopper (Nilaparvata lugens). After 4 days, the efficacy in % is determined. 100% means that all of the planthoppers have been killed; 0% means that none of the planthoppers have been killed.

Myzus persicae [4] = experiment: Myzus persicae spray test (Chinese cabbage leaf discs); type: in vivo; conditions: foliar, 144 h, 500 g/ha, after 6 days, read-out: efficacy
Protocol: Myzus persicae—Spray Test [table] To produce a suitable active compound preparation, 1 part by weight of active compound is dissolved with the specified parts by weight of solvent and made up to the desired concentration with water containing an emulsifier concentration of 1000 ppm. To produce further test concentrations, the formulation is diluted with emulsifier-containing water. Discs of Chinese cabbage leaves (Brassica pekinensis) infested by all stages of the green peach aphid (Myzus persicae) are sprayed with an active compound preparation of the desired concentration. After 6 days, the efficacy in % is determined. 100% means that all the aphids have been killed; 0% means that no aphids have been killed.

Myzus persicae [5] = experiment: Myzus persicae oral test; type: in vivo; conditions: 120 h, 20 ppm, after 5 days, read-out: efficacy
Protocol: Myzus persicae—Oral Test [table] To produce a suitable active compound preparation, 1 part by weight of active compound is dissolved with the stated parts by weight of solvent and made up to the desired concentration with water. 50 μl of the active compound preparation are transferred into microtitre plates and made up to a final volume of 200 μl with 150 μl of IPL41 insect medium (33%+15% sugar). Subsequently, the plates are sealed with parafilm, which a mixed population of green peach aphids (Myzus persicae) within a second microtitre plate is able to puncture and imbibe the solution through it. After 5 days, the efficacy in % is determined. 100% means that all the aphids have been killed; 0% means that no aphids have been killed.

Boophilus microplus = Boophilus microplus injection test; type: in vivo; conditions: 20 μg/animal, after 7 days
Protocol: Boophilus microplus—Injection Test Solvent: dimethyl sulfoxide To produce a suitable active compound preparation, 10 mg of active compound are mixed with 0.5 ml of solvent and the concentrate is diluted to the desired concentration with solvent. 1 μl of the active compound solution is injected into the abdomen of 5 engorged adult female cattle ticks (Boophilus microplus). The animals are transferred into dishes and kept in a climate-controlled room. Efficacy is assessed after 7 days by laying of fertile eggs. Eggs which are not visibly fertile are stored in a climate-controlled cabinet until the larvae hatch after about 42 days. An efficacy of 100% means that none of the ticks has laid any fertile eggs; 0% means that all the eggs are fertile.

[6] = reversed-phase C18 HPLC column, pH 2.7, HCOOH (formic acid mobile phase), 43° C., read-out: log P (HCOOH)
[7] = reversed-phase C18 HPLC column, neutral range, pH 7.8, aqueous ammonium bicarbonate/acetonitrile, 43° C., read-out: log P (neutral)
[8] = reversed-phase C18 HPLC column, acidic range, pH 2.7, 0.1% aqueous formic acid/acetonitrile, 43° C., read-out: log P (acidic)

SMILES: COc1ccc(Cl)c(S(=O)(=O)NC(=O)c2cc3cc(Cl)cc(Cl)n3n2)c1
nematode control efficacy (%) at 1 ppm (Meloidogyne incognita [1]): 0%

SMILES: COc1ccc(Cl)c(S(=O)(=O)NC(=O)c2cc3c(Cl)cc(C(F)(F)F)cn3n2)c1
nematode control efficacy (%) at 8 ppm (Meloidogyne incognita [1]): 30%

SMILES: COc1ccc(Cl)c(S(=O)(=O)NC(=O)c2cn3cc(C(F)(F)F)cc(Cl)c3n2)c1
nematode control efficacy (%) at 0.5 ppm (Meloidogyne incognita [1]): 55%

SMILES: O=C(O)c1cn(Cc2c(F)cccc2F)cn1 [1-(2,6-difluorobenzyl)-1H-imidazole-4-carboxylic acid]
chromatographic logP ([2]; pH 2.7): 0.42

chromatographic logP [2, 6]: 0.67
chromatographic logP [2, 7]: -0.01
SMILES: Cc1nc(C(=O)O)cn1-c1ccccc1Cl [1-(2-chlorophenyl)-2-methyl-1H-imidazole-4-carboxylic acid]

chromatographic logP [2, 7]: 0.85
SMILES: Cc1nc(C(=O)NS(=O)(=O)c2ccccc2Cl)cn1-c1ccccc1Cl [1-(2-chlorophenyl)-N-[(2-chlorophenyl)sulfonyl]-2-methyl-1H-imidazole-4-carboxamide]

SMILES: O=C(O)c1nc(Br)n(CCC(F)(F)F)c1Br [2,5-dibromo-1-(3,3,3-trifluoropropyl)-1H-imidazole-4-carboxylic acid]
chromatographic logP ([2]; pH 2.7): 1.49

chromatographic logP [2, 6]: 2.99
SMILES: O=C(NS(=O)(=O)c1ccccc1Cl)c1nc(Br)n(CCC(F)(F)F)c1Br [2,5-dibromo-N-[(2-chlorophenyl)sulfonyl]-1-(3,3,3-trifluoropropyl)-1H-imidazole-4-carboxamide]

SMILES: CCCn1cnc(C(=O)O)c1Cl [5-chloro-1-propyl-1H-imidazole-4-carboxylic acid]
chromatographic logP ([2]; pH 2.7): 0.6

chromatographic logP [2, 7]: 0.56
SMILES: CCCn1cnc(C(=O)NS(=O)(=O)c2ccc(OC)cc2)c1Cl [5-chloro-N-[(4-methoxyphenyl)sulfonyl]-1-propyl-1H-imidazole-4-carboxamide]

SMILES: COc1ccc(S(=O)(=O)NC(=O)c2ncn(CCC(F)(F)F)c2Cl)cc1C [I-037]
efficacy (Phaedon cochleariae): 83%
pest or weed control at 20 ppm (Meloidogyne incognita [3]): 100%

SMILES: COc1ccc(S(=O)(=O)NC(=O)c2ncn(C(C)CC(F)(F)F)c2Cl)cc1 (stereo not shown) [I-070]
efficacy (Nilaparvata lugens): 100%
pest or weed control at 20 ppm (Meloidogyne incognita [3]): 100%

SMILES: O=C(NS(=O)(=O)c1ccccc1Cl)c1nc(Br)n(CCC(F)(F)F)c1Br [I-107]
efficacy (Nilaparvata lugens): 100%
pest or weed control at 20 ppm (Meloidogyne incognita [3]): 100%

SMILES: COc1ccc(Cl)c(S(=O)(=O)NC(=O)c2nc(Cl)n(-c3cc(Cl)cc(Cl)c3)c2Cl)c1 [I-113]
nematode control efficacy (%) at 0.5 ppm (Meloidogyne incognita [1]): 100%
pest or weed control at 20 ppm (Meloidogyne incognita [3]): 100%

SMILES: COc1ccc(Cl)c(S(=O)(=O)NC(=O)c2cc(-c3cc(Cl)cc(Cl)c3)n(C)n2)c1 [I-137]
nematode control efficacy (%) at 1 ppm (Meloidogyne incognita [1]): 85%
pest or weed control at 20 ppm (Meloidogyne incognita [3]): 100%

SMILES: COc1ccc(Cl)c(S(=O)(=O)NC(=O)c2cc(-c3cc(Cl)cc(C(F)(F)F)c3)n(C)n2)c1 [I-141]
nematode control efficacy (%) at 8 ppm (Meloidogyne incognita [1]): 99%
pest or weed control at 20 ppm (Meloidogyne incognita [3]): 90%

SMILES: Cc1nc(C(=O)NS(=O)(=O)c2ccccc2)cn1-c1cccc(Cl)c1Cl [I-268]
pest or weed control at 500 g/ha (Myzus persicae [4]): 90%
pest or weed control at 20 ppm (Myzus persicae [5]): 90%
pest or weed control at 20 ppm (Meloidogyne incognita [3]): 100%
efficacy (laying of fertile eggs) (Boophilus microplus): 80%

SMILES: Cc1cc(C)cc(-n2cnc(C(=O)NS(=O)(=O)c3ccccc3)c2)c1 [I-284]
pest or weed control at 20 ppm (Myzus persicae [5]): 100%
pest or weed control at 20 ppm (Meloidogyne incognita [3]): 70%
efficacy (laying of fertile eggs) (Boophilus microplus): 100%

SMILES: O=C(NS(=O)(=O)c1cccc(Cl)c1)c1cn(-c2cc(Cl)cc(C(F)(F)F)c2)cn1 [I-300]
efficacy (Phaedon cochleariae): 100%
pest or weed control at 20 ppm (Meloidogyne incognita [3]): 70%

SMILES: CCc1ccc(C)c(S(=O)(=O)NC(=O)c2nc(Cl)n(CCC(F)(F)F)c2Cl)c1 [I-456]
efficacy (Nilaparvata lugens): 100%
pest or weed control at 20 ppm (Meloidogyne incognita [3]): 100%

SMILES: COc1ccc(Cl)c(S(=O)(=O)NC(=O)c2nc(Cl)n(C3CC3C(F)(F)F)c2Cl)c1 (stereo not shown) [I-470]
nematode control efficacy (%) at 0.5 ppm (Meloidogyne incognita [1]): 100%
pest or weed control at 20 ppm (Meloidogyne incognita [3]): 100%

chromatographic logP [2, 8]: 3.84
SMILES: Cn1nc(C(=O)NS(=O)(=O)c2cc(Cl)ccc2Cl)cc1-c1cccc(C(F)(F)F)c1 [N-[(2,5-dichlorophenyl)sulfonyl]-1-methyl-5-[3-(trifluoromethyl)phenyl]-1H-pyrazole-3-carboxamide]

chromatographic logP [2, 8]: 2.18
SMILES: COc1ccc(Cl)c(S(=O)(=O)NC(=O)c2cn(Cc3c(F)cccc3F)cn2)c1 [N-[(2-chloro-5-methoxyphenyl)sulfonyl]-1-(2,6-difluorobenzyl)-1H-imidazole-4-carboxamide]

chromatographic logP [2, 8]: 3.71
SMILES: COc1ccc(Cl)c(S(=O)(=O)NC(=O)c2nc(C)n(-c3cc(Cl)cc(Cl)c3)c2F)c1 [N-[(2-chloro-5-methoxyphenyl)sulfonyl]-1-(3,5-dichlorophenyl)-5-fluoro-2-methyl-1H-imidazole-4-carboxamide]

chromatographic logP [2, 7]: 2.06
SMILES: CCOC(=O)c1cn(-c2ccccc2Cl)c(C)n1 [ethyl 1-(2-chlorophenyl)-2-methyl-1H-imidazole-4-carboxylate]

chromatographic logP [2, 7]: 0.9
SMILES: CCCn1cnc(C(=O)OCC)c1N [ethyl 5-amino-1-propyl-1H-imidazole-4-carboxylate]

chromatographic logP [2, 7]: 1.7
SMILES: CCCn1cnc(C(=O)OCC)c1Cl [ethyl 5-chloro-1-propyl-1H-imidazole-4-carboxylate]

chromatographic logP [2, 8]: 1.45
chromatographic logP [2, 7]: 1.55
SMILES: COC(=O)c1cn(Cc2c(F)cccc2F)cn1 [methyl 1-(2,6-difluorobenzyl)-1H-imidazole-4-carboxylate]

chromatographic logP [2, 6]: 0.87
SMILES: COC(=O)c1cn(CCC(F)(F)F)cn1 [methyl 1-(3,3,3-trifluoropropyl)-1H-imidazole-4-carboxylate]

chromatographic logP [2, 6]: 2.13
SMILES: COC(=O)c1nc(Br)n(CCC(F)(F)F)c1Br [methyl 2,5-dibromo-1-(3,3,3-trifluoropropyl)-1H-imidazole-4-carboxylate]
